This note sets out measurements from US7973061B2, “Anaplastic lymphoma kinase modulators and methods of use” (Exelixis, Inc., priority 2004, dated 2011).

This assay has as its target T1, ALK (baculovirus expressed human ALK kinase domain F1098-K1410) (Homo sapiens, UniProt Q9UM73).
T1 construct: human ALK kinase domain F1098-K1410; made in house
Nature of the assay: biochemical. As to conditions: 1 μM ATP, 4 μM poly-AEKY, 12 nM ALK, 2 hours at ambient temperature; read-out: ALK IC50. The procedure, abridged: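 Baculovirus-expressed human ALK kinase domain (F1098-K1410) was run in a luciferase-coupled chemiluminescent format, with ATP near its KM. After 2 h at ambient temperature, remaining ATP was read by luciferase-luciferin luminescence. IC50 came from 10-point dose-response curves fitted to a four-parameter equation with Hill slope.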

Molecules are shown by their SMILES.

T1 sequence (Q9UM73 1098-1410): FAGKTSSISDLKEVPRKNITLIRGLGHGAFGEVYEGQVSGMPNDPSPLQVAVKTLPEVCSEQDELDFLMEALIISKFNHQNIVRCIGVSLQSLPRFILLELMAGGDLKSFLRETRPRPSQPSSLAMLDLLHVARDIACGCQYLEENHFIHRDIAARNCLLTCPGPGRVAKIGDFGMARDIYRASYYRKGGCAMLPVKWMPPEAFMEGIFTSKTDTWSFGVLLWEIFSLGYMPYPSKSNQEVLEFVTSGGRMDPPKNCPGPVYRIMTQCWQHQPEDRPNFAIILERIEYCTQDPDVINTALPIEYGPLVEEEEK

The IC50 is the concentration needed to halve the response being measured. As for `Cc1onc(-c2ccccc2)c1CNC(=O)c1csc(CNC(=O)COc2ccc(OC(F)(F)F)cc2)n1` [Entry 135, N-[(5-methyl-3-phenylisoxazol-4-yl)methyl]-2-({[({4-[(trifluoromethyl)oxy]phenyl}oxy)acetyl]amino}methyl)-1,3-thiazole-4-carboxamide], the 50% inhibitory concentration (IC50) fell in the range of 50 to 500 nM.

Regarding `O=C(CNC(=O)c1ccc([N+](=O)[O-])cc1)NCc1nc(C(=O)NCCc2cccc(Cl)c2)cs1` [Entry 136, N-[2-(3-chlorophenyl)ethyl]-2-[({N-[(4-nitrophenyl)carbonyl]glycyl}amino)methyl]-1,3-thiazole-4-carboxamide], the half-inhibitory concentration (IC50) was in the range of 50 to 500 nM.

Regarding `COc1ccc(OC)c(CCNC(=O)c2csc(CNC(=O)COc3ccc(OC(F)(F)F)cc3)n2)c1` [Entry 137, N-{2-[2,5-bis(methyloxy)phenyl]ethyl}-2-({[({4-[(trifluoromethyl)oxy]phenyl}oxy)acetyl]amino}methyl)-1,3-thiazole-4-carboxamide], the half-inhibitory concentration (IC50) is 50 to 500 nM.

As for `CC(C)CCNC(=O)c1csc(CNC(=O)COc2ccc(OC(F)(F)F)cc2)n1` [Entry 138, N-(3-methylbutyl)-2-({[({4-[(trifluoromethyl)oxy]phenyl}oxy)acetyl]amino}methyl)-1,3-thiazole-4-carboxamide], the IC50 was 50 to 500 nM.

With `O=C(COc1ccc(OC(F)(F)F)cc1)NCc1nc(C(=O)N2CCc3ccccc3C2)cs1` [Entry 139, N-{[4-(3,4-dihydroisoquinolin-2(1H)-ylcarbonyl)-1,3-thiazol-2-yl]methyl}-2-({4-[(trifluoromethyl)oxy]phenyl}oxy)acetamide], the IC50 lay within 50 to 500 nM.

On to `CC1CCC(NC(=O)c2csc(CNC(=O)COc3ccc(OC(F)(F)F)cc3)n2)CC1` (stereo not drawn) [Entry 140, N-(4-methylcyclohexyl)-2-({[({4-[(trifluoromethyl)oxy]phenyl}oxy)acetyl]amino}methyl)-1,3-thiazole-4-carboxamide], for which the concentration for half-maximal inhibition (IC50) lay within 50 to 500 nM.

As for `O=C(NCCc1cccc(Cl)c1)c1csc(CNC(=O)c2cccnc2Oc2ccc(F)cc2)n1` [Entry 141, N-{[4-({[2-(3-chlorophenyl)ethyl]amino}carbonyl)-1,3-thiazol-2-yl]methyl}-2-[(4-fluorophenyl)oxy]pyridine-3-carboxamide], the half-inhibitory concentration (IC50) lay in the range of 50 to 500 nM.

Turning to `O=C(COc1ccc(OC(F)(F)F)cc1)NCc1nc(C(=O)Nc2ccc(C(=O)O)c(O)c2)cs1` [Entry 142, 2-hydroxy-4-({[2-({[({4-[(trifluoromethyl)oxy]phenyl}oxy)acetyl]amino}methyl)-1,3-thiazol-4-yl]carbonyl}amino)benzoic acid], the concentration for half-maximal inhibition (IC50) lay within 50 to 500 nM.

With `O=C(COc1ccc(OC(F)(F)F)cc1)NCc1nc(C(=O)NCCc2ccccc2F)co1` [Entry 143, N-[2-(2-fluorophenyl)ethyl]-2-({[({4-[(trifluoromethyl)oxy]phenyl}oxy)acetyl]amino}methyl)-1,3-oxazole-4-carboxamide], the half-inhibitory concentration (IC50) was 50 to 500 nM.

Consider `COc1cccc(CNC(=O)c2csc(CNC(=O)c3cccnc3Oc3ccc(Cl)cc3)n2)c1OC` [Entry 144, N-({4-[({[2,3-bis(methyloxy)phenyl]methyl}amino)carbonyl]-1,3-thiazol-2-yl}methyl)-2-[(4-chlorophenyl)oxy]pyridine-3-carboxamide], for which the IC50 lay in the range of 50 to 500 nM.

As to `O=C(COc1ccc(OC(F)(F)F)cc1)NCc1nc(C(=O)NCCc2ccccc2)cs1` [Entry 145, N-(2-phenylethyl)-2-({[({4-[(trifluoromethyl)oxy]phenyl}oxy)acetyl]amino}methyl)-1,3-thiazole-4-carboxamide], the half-inhibitory concentration (IC50) is 50 to 500 nM.

On to `CCSCCNC(=O)c1csc(CNC(=O)COc2ccc(OC(F)(F)F)cc2)n1` [Entry 146, N-[2-(ethylthio)ethyl]-2-({[({4-[(trifluoromethyl)oxy]phenyl}oxy)acetyl]amino}methyl)-1,3-thiazole-4-carboxamide], for which the IC50 was 50 to 500 nM.

For `C#CC(CC)(CC)NC(=O)c1csc(CNC(=O)COc2ccc(OC(F)(F)F)cc2)n1` [Entry 147, N-(1,1-diethylprop-2-yn-1-yl)-2-({[({4-[(trifluoromethyl)oxy]phenyl}oxy)acetyl]amino}methyl)-1,3-thiazole-4-carboxamide], the half-maximal inhibitory concentration (IC50) fell in the range of 50 to 500 nM.

Take `O=C(COc1ccc(OC(F)(F)F)cc1)NCc1nc(C(=O)NCCc2cccc(F)c2)co1` [Entry 148, N-[2-(3-fluorophenyl)ethyl]-2-({[({4-[(trifluoromethyl)oxy]phenyl}oxy)acetyl]amino}methyl)-1,3-oxazole-4-carboxamide]: the IC50 was 50 to 500 nM.

With `CSCCCNC(=O)c1csc(CNC(=O)COc2ccc(OC(F)(F)F)cc2)n1` [Entry 149, N-[3-(methylthio)propyl]-2-({[({4-[(trifluoromethyl)oxy]phenyl}oxy)acetyl]amino}methyl)-1,3-thiazole-4-carboxamide], the IC50 lay within 50 to 500 nM.

In the case of `Cc1cc(Cl)ccc1CNC(=O)c1csc(CNC(=O)COc2ccc(OC(F)(F)F)cc2)n1` [Entry 150, N-[(4-chloro-2-methylphenyl)methyl]-2-({[({4-[(trifluoromethyl)oxy]phenyl}oxy)acetyl]amino}methyl)-1,3-thiazole-4-carboxamide], the 50% inhibitory concentration (IC50) is 50 to 500 nM.

Take `Cc1cccc(CCNC(=O)c2coc(CNC(=O)COc3ccc(OC(F)(F)F)cc3)n2)c1` [Entry 151, N-[2-(3-methylphenyl)ethyl]-2-({[({4-[(trifluoromethyl)oxy]phenyl}oxy)acetyl]amino}methyl)-1,3-oxazole-4-carboxamide]: the IC50 is 50 to 500 nM.

On to `CC(CCc1ccccc1)NC(=O)c1csc(CNC(=O)COc2ccc(OC(F)(F)F)cc2)n1` (stereo not drawn) [Entry 152, N-(1-methyl-3-phenylpropyl)-2-({[({4-[(trifluoromethyl)oxy]phenyl}oxy)acetyl]amino}methyl)-1,3-thiazole-4-carboxamide], for which the 50% inhibitory concentration (IC50) lay in the range of 50 to 500 nM.

With `CC(C)[C@H](C)NC(=O)c1csc(CNC(=O)COc2ccc(OC(F)(F)F)cc2)n1` [Entry 153, N-[(1S)-1,2-dimethylpropyl]-2-({[({4-[(trifluoromethyl)oxy]phenyl}oxy)acetyl]amino}methyl)-1,3-thiazole-4-carboxamide], the 50% inhibitory concentration (IC50) was in the range of 50 to 500 nM.

`COc1cccc(CNC(=O)c2csc(CNC(=O)COc3ccc(OC(F)(F)F)cc3)n2)c1` [Entry 154, N-{[3-(methyloxy)phenyl]methyl}-2-({[({4-[(trifluoromethyl)oxy]phenyl}oxy)acetyl]amino}methyl)-1,3-thiazole-4-carboxamide]: the concentration for half-maximal inhibition (IC50) was in the range of 50 to 500 nM.

As for `COc1ccc(CCNC(=O)c2coc(CNC(=O)COc3ccc(OC(F)(F)F)cc3)n2)cc1OC` [Entry 155, N-{2-[3,4-bis(methyloxy)phenyl]ethyl}-2-({[({4-[(trifluoromethyl)oxy]phenyl}oxy)acetyl]amino}methyl)-1,3-oxazole-4-carboxamide], the IC50 was 50 to 500 nM.

In the case of `O=C(COc1ccc(OC(F)(F)F)cc1)NCc1nc(C(=O)NCc2cccc(C(F)(F)F)c2)cs1` [Entry 156, 2-({[({4-[(trifluoromethyl)oxy]phenyl}oxy)acetyl]amino}methyl)-N-{[3-(trifluoromethyl)phenyl]methyl}-1,3-thiazole-4-carboxamide], the IC50 was 50 to 500 nM.

Take `O=C(COc1ccc(OC(F)(F)F)cc1)NCc1nc(C(=O)NCc2cccc(I)c2)cs1` [Entry 157, N-[(3-iodophenyl)methyl]-2-({[({4-[(trifluoromethyl)oxy]phenyl}oxy)acetyl]amino}methyl)-1,3-thiazole-4-carboxamide]: the IC50 is 50 to 500 nM.

Regarding `O=C(COc1ccc(OC(F)(F)F)cc1)NCc1nc(C(=O)NCc2cccc(C(F)(F)F)c2F)cs1` [Entry 158, N-{[2-fluoro-3-(trifluoromethyl)phenyl]methyl}-2-({[({4-[(trifluoromethyl)oxy]phenyl}oxy)acetyl]amino}methyl)-1,3-thiazole-4-carboxamide], the half-maximal inhibitory concentration (IC50) lay in the range of 50 to 500 nM.

Regarding `O=C(COc1ccc(OC(F)(F)F)cc1)NCc1nc(C(=O)NCCc2cccs2)co1` [Entry 159, N-[2-(2-thienyl)ethyl]-2-({[({4-[(trifluoromethyl)oxy]phenyl}oxy)acetyl]amino}methyl)-1,3-oxazole-4-carboxamide], the IC50 lay in the range of 50 to 500 nM.

Regarding `O=C(COc1ccc(OC(F)(F)F)cc1)NCc1nc(C(=O)NCCc2ccc(Cl)cc2Cl)cs1` [Entry 160, N-[2-(2,4-dichlorophenyl)ethyl]-2-({[({4-[(trifluoromethyl)oxy]phenyl}oxy)acetyl]amino}methyl)-1,3-thiazole-4-carboxamide], the IC50 is 50 to 500 nM.

As for `O=C(COc1cccc(Cl)c1)NCc1nc(C(=O)NCCc2cccc(Cl)c2)cs1` [Entry 161, N-[2-(3-chlorophenyl)ethyl]-2-[({[(3-chlorophenyl)oxy]acetyl}amino)methyl]-1,3-thiazole-4-carboxamide], the 50% inhibitory concentration (IC50) lay in the range of 50 to 500 nM.

On to `Cc1ccc([C@H](C)NC(=O)c2csc(CNC(=O)COc3ccc(OC(F)(F)F)cc3)n2)cc1` [Entry 162, N-[(1S)-1-(4-methylphenyl)ethyl]-2-({[({4-[(trifluoromethyl)oxy]phenyl}oxy)acetyl]amino}methyl)-1,3-thiazole-4-carboxamide], for which the half-inhibitory concentration (IC50) is 50 to 500 nM.

In the case of `O=C(COc1ccc(OC(F)(F)F)cc1)NCc1nc(C(=O)NCc2c(Cl)cccc2Oc2ccccc2)cs1` [Entry 163, N-{[2-chloro-6-(phenyloxy)phenyl]methyl}-2-({[({4-[(trifluoromethyl)oxy]phenyl}oxy)acetyl]amino}methyl)-1,3-thiazole-4-carboxamide], the concentration for half-maximal inhibition (IC50) lay in the range of 50 to 500 nM.

As for `O=C(COc1ccc(OC(F)(F)F)cc1)NCc1nc(C(=O)NCc2cccs2)cs1` [Entry 164, N-(2-thienylmethyl)-2-({[({4-[(trifluoromethyl)oxy]phenyl}oxy)acetyl]amino}methyl)-1,3-thiazole-4-carboxamide], the IC50 is 50 to 500 nM.
